Source: PubChem BioAssay AID256 (DTP/NCI, 2004)
Several values for one entry are separate records, joined by “and”; a condition that tells them apart may be missing. Equal entries are not always repeated. Toxic doses and inconclusive results are not listed.

System: CD2F1 mice, L1210 leukemia ip, survival T/C
Assay: NCI In Vivo Anticancer Drug Screen. Data for tumor model L1210 Leukemia (intraperitoneal) in CD2F1 (CDF1) mice
Conditions: higher = longer survival
How it was run: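 Each value reflects a quotient of treated over vehicle control outcomes in mice with a transplanted tumor.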

[1] = endpoint: mean survival time, dose: 100.0 mg/kg/injection, schedule: Q04DX003 (ip), vehicle: saline with Tween-80
[2] = endpoint: mean survival time, dose: 200.0 mg/kg/injection, schedule: Q04DX003 (ip), vehicle: saline with Tween-80
[3] = endpoint: mean survival time, dose: 400.0 mg/kg/injection, schedule: Q04DX003 (ip), vehicle: saline with Tween-80
[4] = endpoint: mean survival time, dose: 50.0 mg/kg/injection, schedule: Q01DX009 (ip), vehicle: Klucel (hydroxypropylcellulose) (HPC)
[5] = endpoint: mean survival time, dose: 100.0 mg/kg/injection, schedule: Q01DX009 (ip), vehicle: Klucel (hydroxypropylcellulose) (HPC)
[6] = endpoint: mean survival time, dose: 200.0 mg/kg/injection, schedule: Q01DX009 (ip), vehicle: Klucel (hydroxypropylcellulose) (HPC)

Cc1nc(N)nc(N)c1-c1ccc(Cl)c(Cl)c1
T/C (endpoint: mean survival time, dose: 1.0 mg/kg/injection, schedule: Q01DX009 (ip), vehicle: Klucel (hydroxypropylcellulose) (HPC)): 106 % of control | T/C (endpoint: mean survival time, dose: 1.0 mg/kg/injection, schedule: Q01DX009 (ip), vehicle: saline with Tween-80): 107 % of control | T/C (endpoint: mean survival time, dose: 1.0 mg/kg/injection, schedule: Q02DX005 (ip), vehicle: saline): 115 % of control | T/C (endpoint: mean survival time, dose: 1.25 mg/kg/injection, schedule: Q01DX005 (ip), vehicle: distilled water + Tween-80): 95 % of control | T/C (endpoint: mean survival time, dose: 1.25 mg/kg/injection, schedule: Q01DX005 (ip), vehicle: water): 104 % of control | T/C (endpoint: mean survival time, dose: 1.3 mg/kg/injection, schedule: Q01DX009 (sc), vehicle: other): 123 % of control | T/C (endpoint: mean survival time, dose: 2.0 mg/kg/injection, schedule: Q01DX009 (ip), vehicle: Klucel (hydroxypropylcellulose) (HPC)): 107 % of control | T/C (endpoint: mean survival time, dose: 2.0 mg/kg/injection, schedule: Q01DX009 (ip), vehicle: saline with Tween-80): 119 % of control | T/C (endpoint: mean survival time, dose: 2.0 mg/kg/injection, schedule: Q02DX005 (ip), vehicle: saline): 115 % of control | T/C (endpoint: mean survival time, dose: 2.5 mg/kg/injection, schedule: Q01DX005 (ip), vehicle: distilled water + Tween-80): 93 % of control | T/C (endpoint: mean survival time, dose: 2.5 mg/kg/injection, schedule: Q01DX005 (ip), vehicle: water): 100 % of control | T/C (endpoint: mean survival time, dose: 4.0 mg/kg/injection, schedule: Q01DX009 (ip), vehicle: Klucel (hydroxypropylcellulose) (HPC)): 109 % of control | T/C (endpoint: mean survival time, dose: 4.0 mg/kg/injection, schedule: Q02DX005 (ip), vehicle: saline): 107 % of control | T/C (endpoint: mean survival time, dose: 4.0 mg/kg/injection, schedule: Q03DX002 (ip), vehicle: saline with Tween-80): 108 % of control | T/C (endpoint: mean survival time, dose: 5.0 mg/kg/injection, schedule: Q01DX005 (ip), vehicle: distilled water + Tween-80): 98 % of control | T/C (endpoint: mean survival time, dose: 5.0 mg/kg/injection, schedule: Q01DX005 (ip), vehicle: water): 100 % of control | T/C (endpoint: mean survival time, dose: 5.0 mg/kg/injection, schedule: Q02DX005 (ip), vehicle: saline): 87 % of control | T/C (endpoint: mean survival time, dose: 5.0 mg/kg/injection, schedule: Q## X005 (ip), vehicle: saline): 117 % of control | T/C (endpoint: mean survival time, dose: 6.0 mg/kg/injection, schedule: Q03DX002 (ip), vehicle: saline with Tween-80): 103 % of control | T/C (endpoint: mean survival time, dose: 8.0 mg/kg/injection, schedule: Q03DX002 (ip), vehicle: saline with Tween-80): 93 % of control | T/C (endpoint: mean survival time, dose: 10.0 mg/kg/injection, schedule: Q01DX005 (ip), vehicle: distilled water + Tween-80): 102 % of control | T/C (endpoint: mean survival time, dose: 10.0 mg/kg/injection, schedule: Q01DX005 (ip), vehicle: water): 98 % of control | T/C (endpoint: mean survival time, dose: 10.0 mg/kg/injection, schedule: Q03DX002 (ip), vehicle: saline with Tween-80): 110 % of control | T/C (endpoint: mean survival time, dose: 10.0 mg/kg/injection, schedule: Q## X005 (ip), vehicle: saline): 102 % of control | T/C (endpoint: mean survival time, dose: 12.0 mg/kg/injection, schedule: Q03DX002 (ip), vehicle: saline with Tween-80): 117 % of control | T/C (endpoint: mean survival time, dose: 16.0 mg/kg/injection, schedule: Q01DX009 (ip), vehicle: Klucel (hydroxypropylcellulose) (HPC)): 111 % of control | T/C (endpoint: mean survival time, dose: 20.0 mg/kg/injection, schedule: Q01DX005 (ip), vehicle: distilled water + Tween-80): 100 % of control | T/C (endpoint: mean survival time, dose: 20.0 mg/kg/injection, schedule: Q01DX005 (ip), vehicle: water): 98 % of control | T/C (endpoint: mean survival time, dose: 20.0 mg/kg/injection, schedule: Q04DX002 (ip), vehicle: saline): 97 % of control | T/C (endpoint: mean survival time, dose: 20.0 mg/kg/injection, schedule: Q## X005 (ip), vehicle: saline): 88 % of control | T/C (endpoint: mean survival time, dose: 30.0 mg/kg/injection, schedule: Q04DX002 (ip), vehicle: saline): 107 % of control | T/C (endpoint: mean survival time, dose: 40.0 mg/kg/injection, schedule: Q04DX002 (ip), vehicle: saline): 118 % of control and 103 % of control | T/C (endpoint: mean survival time, dose: 50.0 mg/kg/injection, schedule: Q04DX002 (ip), vehicle: saline): 100 % of control | T/C (endpoint: mean survival time, dose: 60.0 mg/kg/injection, schedule: Q04DX002 (ip), vehicle: saline): 108 % of control | T/C (endpoint: mean survival time, dose: 75.0 mg/kg/injection, schedule: Q04DX003 (ip), vehicle: saline): 118 % of control | T/C (endpoint: median survival time, dose: 0.62 mg/kg/injection, schedule: Q01DX009 (ip), vehicle: saline): 96 % of control | T/C (endpoint: median survival time, dose: 1.25 mg/kg/injection, schedule: Q01DX009 (ip), vehicle: saline): 97 % of control | T/C (endpoint: median survival time, dose: 5.0 mg/kg/injection, schedule: Q01DX009 (ip), vehicle: saline): 111 % of control | T/C (endpoint: median survival time, dose: 10.0 mg/kg/injection, schedule: Q01DX009 (ip), vehicle: saline): 113 % of control | T/C (endpoint: median survival time, dose: 20.0 mg/kg/injection, schedule: Q01DX009 (ip), vehicle: saline): 97 % of control

CCNC(C)(C)C(SS)c1ccc(C(F)(F)F)cc1 (centres undefined)
T/C [1]: 88 % of control | T/C [2]: 90 % of control | T/C [3]: 93 % of control

Cc1ccc(S(=O)(=O)N(Cc2ccc(Cl)cc2)N2CCOC2=O)cc1
T/C [4]: 92 % of control | T/C [5]: 93 % of control | T/C [6]: 98 % of control

COc1ccc(C2CCc3cc4c(cc3C2=O)OCO4)cc1OC (centres undefined)
T/C [1]: 98 % of control | T/C [2]: 96 % of control | T/C [3]: 91 % of control

O=C(CC(=O)c1cccc([N+](=O)[O-])c1)Nc1cccc([N+](=O)[O-])c1
T/C [5]: 92 % of control | T/C (endpoint: mean survival time, dose: 100.0 mg/kg/injection, schedule: Q04DX003 (ip), vehicle: Klucel (hydroxypropylcellulose) (HPC)): 90 % of control | T/C [6]: 92 % of control | T/C (endpoint: mean survival time, dose: 200.0 mg/kg/injection, schedule: Q04DX003 (ip), vehicle: Klucel (hydroxypropylcellulose) (HPC)): 96 % of control | T/C (endpoint: mean survival time, dose: 400.0 mg/kg/injection, schedule: Q01DX009 (ip), vehicle: Klucel (hydroxypropylcellulose) (HPC)): 94 % of control | T/C (endpoint: mean survival time, dose: 400.0 mg/kg/injection, schedule: Q04DX003 (ip), vehicle: Klucel (hydroxypropylcellulose) (HPC)): 96 % of control

c1ccc(-c2ccccc2N=C2N=NN=N2)cc1
T/C (endpoint: mean survival time, dose: 100.0 mg/kg/injection, schedule: Q01DX001 (ip), vehicle: saline with Tween-80): 96 % of control | T/C [1]: 103 % of control | T/C (endpoint: mean survival time, dose: 200.0 mg/kg/injection, schedule: Q01DX001 (ip), vehicle: saline with Tween-80): 114 % of control | T/C [2]: 93 % of control | T/C (endpoint: mean survival time, dose: 400.0 mg/kg/injection, schedule: Q01DX001 (ip), vehicle: saline with Tween-80): 94 % of control | T/C [3]: 97 % of control

CC(=O)Nc1nc(C)c(CCCOc2ccc([N+](=O)[O-])cc2)c(=O)[nH]1
T/C [4]: 97 % of control | T/C [5]: 90 % of control | T/C [6]: 90 % of control

COC(=O)NC1C(C)OC(OC2C/C=C(/C)C3C=CC4C(OC5CC(OC6CCC(OC7CC(O)C(OC8CCC(O)C(C)O8)C(C)O7)C(C)O6)C(OC(C)=O)C(C)O5)C(C)CC(C)C4C3(C)/C(O)=C3/C(=O)OC4(CC(C=O)=CC(O)C4/C=C\2C)C3=O)CC1(C)[N+](=O)[O-] (centres undefined)
T/C (endpoint: median survival time, dose: 1.25 mg/kg/injection, schedule: Q01DX009 (ip), vehicle: water): 106 % of control | T/C (endpoint: median survival time, dose: 2.5 mg/kg/injection, schedule: Q01DX009 (ip), vehicle: water): 106 % of control | T/C (endpoint: median survival time, dose: 5.0 mg/kg/injection, schedule: Q01DX009 (ip), vehicle: water): 113 % of control | T/C (endpoint: median survival time, dose: 10.0 mg/kg/injection, schedule: Q01DX009 (ip), vehicle: water): 121 % of control

CN(C)c1ccc(N=Nc2cccc(C(=O)[O-])c2)cc1.CN(C)c1ccc(N=Nc2cccc(C(=O)[O-])c2)cc1.NC1CCCCC1N.O=[N+]([O-])O.[Pt+4]
T/C (endpoint: median survival time, dose: 3.12 mg/kg/injection, schedule: Q04DX003 (ip), vehicle: saline with Tween-80): 104 % of control and 108 % of control | T/C (endpoint: median survival time, dose: 6.25 mg/kg/injection, schedule: Q04DX003 (ip), vehicle: saline with Tween-80): 105 % of control and 110 % of control | T/C (endpoint: median survival time, dose: 12.5 mg/kg/injection, schedule: Q04DX003 (ip), vehicle: saline with Tween-80): 120 % of control and 105 % of control | T/C (endpoint: median survival time, dose: 25.0 mg/kg/injection, schedule: Q04DX003 (ip), vehicle: saline with Tween-80): 110 % of control | T/C (endpoint: median survival time, dose: 100.0 mg/kg/injection, schedule: Q04DX003 (ip), vehicle: saline with Tween-80): 212 % of control and 313 % of control | T/C (endpoint: median survival time, dose: 200.0 mg/kg/injection, schedule: Q04DX003 (ip), vehicle: saline with Tween-80): 361 % of control

CCCCC(CC)CCC(OC(=O)CSC#N)C(C)CC (centres undefined)
T/C (endpoint: mean survival time, dose: 100.0 mg/kg/injection, schedule: Q01DX001 (ip), vehicle: saline): 97 % of control | T/C (endpoint: mean survival time, dose: 200.0 mg/kg/injection, schedule: Q01DX001 (ip), vehicle: saline): 91 % of control | T/C (endpoint: mean survival time, dose: 400.0 mg/kg/injection, schedule: Q01DX001 (ip), vehicle: saline): 97 % of control

O=C1CCCCCCCCC1O (centres undefined)
T/C [1]: 102 % of control | T/C [2]: 103 % of control | T/C [3]: 96 % of control

Nc1ncnc2c1ncn2C1OC(COCc2ccccc2)C(OCc2ccccc2)C1OCc1ccccc1 (centres undefined)
T/C (endpoint: mean survival time, dose: 20.0 mg/kg/injection, schedule: Q01DX Z (ip), vehicle: saline): 90 % of control | T/C (endpoint: mean survival time, dose: 40.0 mg/kg/injection, schedule: Q01DX Z (ip), vehicle: saline): 90 % of control | T/C (endpoint: mean survival time, dose: 80.0 mg/kg/injection, schedule: Q01DX Z (ip), vehicle: saline): 90 % of control and 93 % of control | T/C (endpoint: mean survival time, dose: 160.0 mg/kg/injection, schedule: Q01DX Z (ip), vehicle: saline): 91 % of control and 96 % of control
